From patent US20250304985A1, “Genetically Engineered Plants for Increased Production of Vindoline” (Northeastern University, priority 2022, published 2025)

Tests used:
Type in all cases: in vivo, Catharanthus roseus
C. roseus seedlings = test: Paclobutrazol treatment of etiolated seedlings: seedling height; settings: 1 μM PAC, dark-grown seedlings, 4 days, vs DMSO mock
Experimental: (§1) Because PAC might disrupt germination, seedlings were first germinated normally without any treatment by incubating them in the dark for 5 days at 27° C. The germinated seeds were then transferred to either media containing 1 μM PAC or media containing an equal volume of DMSO as a mock treatment. These seedlings were kept in the dark for 4 more days before being harvested for gene expression analysis.
Seedlings treated with PAC were photographed and lengths were measured with ImageJ. Statistical significance for all phenotype measurements was analyzed with a two-tailed unpaired T-test.
C. roseus var. Little Bright Eye seeds (NESeeds, 0.8 g) were sterilized by submersion in 4% Plant Preservative Mixture (PPM) for 18 hours in the dark. The PPM was then decanted, and the seeds were spread on full-strength Gamborg's media (3.1 g/L Gamborg's basal salts, 1× Gamborg's vitamins, and 6% micropropagation agar type 1, Phytotechnology Laboratory) inside a sterile Magenta™ Plant Culture Box (Sigma) for germination. […] Seedlings were maintained in the dark at 27° C. for 4 days, and then were harvested by placing 3 whole seedlings in a 2 mL screw cap tube containing ten 3 mm glass beads for each biological replicate, flash-freezing in liquid nitrogen, and storing at −80° C. until ready for RNA extraction and qPCR analysis.

CrLHCB2.2 = test: Paclobutrazol treatment of etiolated seedlings: CrLHCB2.2 expression by qPCR (positive control); settings: 1 μM PAC, dark-grown seedlings, 4 days, vs DMSO mock; normalized to SAND
Experimental: as §1
This is consistent with GA's positive role in growth and served as a good indicator that the PAC was having an effect on the seedlings. As a positive control, expression of CrLHCB2.2 was measured; CrLHCB2.2 is a homologue of the light harvesting complex subunit B 2.2, which was previously shown to be activated by PAC treatment of dark-grown seedlings in A. thaliana.
Gene expression levels were monitored using quantitative real-time PCR (qRT-PCR) with primers listed in Table 1. mRNA was extracted from liquid nitrogen flash-frozen leaf tissue or seedlings stored at −80° C. […] Ct values for each biological replicate were calculated as the average of two technical replicates. Transcript levels were normalized to the housekeeping gene, SAND [76], and fold changes relative to the negative control condition were calculated according to the […]. Amplification efficiency for each primer set was confirmed using Ct values over a range of cDNA dilutions and was 100%±10% for each gene monitored. […]

[1] = tested on: vindoline pathway gene expression; test: Paclobutrazol treatment of etiolated seedlings: vindoline pathway gene expression by qPCR; settings: 1 μM PAC, dark-grown seedlings, 4 days, vs DMSO mock
Experimental: as §1
Gene expression levels were monitored using quantitative real-time PCR (qRT-PCR) with primers listed in Table 1. mRNA was extracted from liquid nitrogen flash-frozen leaf tissue or seedlings stored at −80° C. While still frozen, tissue was crushed by shaking in a Mini-BeadBeater-16 (Biospec) for 15 seconds with ten 3 mm glass beads (Fisher). Afterwards, RNA was extracted with RNAzol-RT (Molecular Research Center) and the Direct-zol RNA Miniprep Plus Kit (Zymo Research) with on-column DNAse treatment to remove genomic DNA. RNA integrity was assessed using agarose gel electrophoresis, and concentration and purity were quantified with a NanoDrop (ND-1000 Spectrophotometer; ThermoScientific). cDNA was synthesized using either the SuperScript II First-Strand Synthesis System (Invitrogen) or the LunaScript RT SuperMix Kit (New England Biolabs) with up to 2.5 μg of RNA, according to manufacturer's instructions. cDNA was diluted 1:4, and 1 μL was used in a 10 μL reaction with SYBR Green ROX qPCR Master Mix (Qiagen or ABClonal) and 300 nM primers on the MX3000P qPCR instrument (Agilent) using the thermocycler protocol previously described with an extension time of 30 seconds. Ct values for each biological replicate were calculated as the average of two technical replicates. Transcript levels were normalized to the housekeeping gene, SAND [76], and fold changes relative to the negative control condition were calculated according to the […]. Amplification efficiency for each primer set was confirmed using Ct values over a range of cDNA dilutions and was 100%±10% for each gene monitored. Specificity of the primers were confirmed by gel electrophoresis and sequencing. SAND Ct values in no reverse-transcriptase controls were confirmed to be at least 5 Ct values above the respective experimental sample, indicating minimal genomic DNA contamination.
C. roseus var. Little Bright Eye seeds (NESeeds, 0.8 g) were sterilized by submersion in 4% Plant Preservative Mixture (PPM) for 18 hours in the dark. The PPM was then decanted, and the seeds were spread on full-strength Gamborg's media (3.1 g/L Gamborg's basal salts, 1× Gamborg's vitamins, and 6% micropropagation agar type 1, Phytotechnology Laboratory) inside a sterile Magenta™ Plant Culture Box (Sigma) for germination. Seeds were germinated in the dark at 27° C. for 5 days until the radicle of the seedling had just emerged. A 100 mM stock solution of paclobutrazol (PAC, PhytoTechnology Laboratories) was prepared with DMSO as the solvent, filter-sterilized, and stored at −20° C. until use. A final concentration of 1 μM PAC or an equivalent amount of DMSO (mock) was added to Gamborg's media after autoclaving. After germination, seedlings were sterilely transferred to a new Magenta™ Box containing Gamborg's media containing 1 μM PAC or DMSO. Seedlings were maintained in the dark at 27° C. for 4 days, and then were harvested by placing 3 whole seedlings in a 2 mL screw cap tube containing ten 3 mm glass beads for each biological replicate, flash-freezing in liquid nitrogen, and storing at −80° C. until ready for RNA extraction and qPCR analysis.

[2] = tested on: CrDELLA1 and CrDELLA2 transcript levels; test: Paclobutrazol treatment of etiolated seedlings: DELLA transcript levels by qPCR; settings: 1 μM PAC, dark-grown seedlings, 4 days, vs DMSO mock
Experimental: as §1
Gene expression levels were monitored using quantitative real-time PCR (qRT-PCR) with primers listed in Table 1. mRNA was extracted from liquid nitrogen flash-frozen leaf tissue or seedlings stored at −80° C. […] RNA integrity was assessed using agarose gel electrophoresis, and concentration and purity were quantified with a NanoDrop (ND-1000 Spectrophotometer; ThermoScientific). cDNA was synthesized using either the SuperScript II First-Strand Synthesis System (Invitrogen) or the LunaScript RT SuperMix Kit (New England Biolabs) with up to 2.5 μg of RNA, according to manufacturer's instructions. cDNA was diluted 1:4, and 1 μL was used in a 10 μL reaction with SYBR Green ROX qPCR Master Mix (Qiagen or ABClonal) and 300 nM primers on the MX3000P qPCR instrument (Agilent) using the thermocycler protocol previously described with an extension time of 30 seconds. Ct values for each biological replicate were calculated as the average of two technical replicates. […]

## CC(C)(C)[C@@H](O)[C@@H](Cc1ccc(Cl)cc1)n1cncn1 (racemic) [PAC, paclobutrazol]
C. roseus seedlings
  seedling height: significant decrease
CrLHCB2.2
  activation of CrLHCB2.2 expression: > 2 fold
[1]
  D4H gene expression: significant decrease
  T16H2 gene expression: no effect
[1]; not statistically significant
  activation of DAT gene expression: approximately 50%
  activation of NMT gene expression: approximately 50%
  activation of T3O gene expression: approximately 50%
  activation of T3R gene expression: approximately 50%
[1]; statistically significant
  activation of 16OMT gene expression: approximately 50%
[2]
  CrDELLA1 expression: significantly decreased expression
  CrDELLA2 expression: significantly decreased expression
